Patent publication US10392404B2, “Compounds and compositions as kinase inhibitors” (NOVARTIS AG, priority 2014, dated 2019)

Key:
b-Raf (V600E) = molecular target: T1, b-Raf (V600E) (Homo sapiens, UniProt P15056, V600E); experiment: In vitro Raf activity determination (Alpha Screen, biotinylated kinase-dead MEK1 substrate), B-Raf; type: biochemical; details: b-Raf (V600E) approximately 4 pM; ATP 10 μM; pre-incubation 60 minutes; reaction 3 hours at room temperature
T1 construct: made in house
Protocol: (§1) Full length MEK1 with an inactivating K97R ATP binding site mutation is utilized as a RAF substrate. The MEK1 cDNA was subcloned with an N-terminal (his)6 tag into a vector for E. Coli expression. The MEK1 substrate was purified from E. Coli lysate by nickel affinity chromatography followed by anion exchange. The final MEK1 preparation was biotinylated (Pierce EZ-Link Sulfo-NHS-LC-Biotin) and concentrated.
(§2) Assay Materials: Assay buffer is 50 mM Tris, pH 7.5, 15 mM MgCl2, 0.01% Bovine Serum Albumin (BSA) and 1 mM dithiothreitol (DTT); Stop buffer is 60 mM ethylenediaminetetraacetic acid (EDTA) and 0.01% Tween® 20; b-Raf (V600E), active; biotinylated Mek, kinase dead; Alpha Screen detection kit (available from PerkinElmer™, #6760617R); Anti phospho-MEK1/2 (available from Cell Signaling Technology, Inc. #9121); 384 well low volume assay plates (White Greiner® plates).
(§3) Assay conditions: b-Raf (V600E) approximately 4 pM; c-Raf approximately 4 nM; biotinylated Mek, kinase dead approximately 10 nM; ATP 10 μM for BRAF (V600E) and 1 μM for CRAF; Pre-incubation time with compounds 60 minutes at room temperature; Reaction time 1 or 3 hours at room temperature.
(§4) Assay protocol: Raf and biotinylated Mek (kinase dead) were combined at 2× final concentrations in assay buffer (50 mM Tris, pH 7.5, 15 mM MgCl2, 0.01% BSA and 1 mM DTT) and dispensed […] per well in assay plates (Greiner white 384 well assay plates #781207) containing […] of 40× of a Raf kinase inhibitor test compound diluted in 100% DMSO. The plate was incubated for 60 minutes at room temperature. The Raf kinase activity reaction was started by the addition of […] per well of 2×ATP diluted in assay buffer. After 3 hours (b-Raf(V600E)) or 1 hour (c-Raf). The reactions were stopped and the phosphorylated product was measured using a rabbit anti-p-MEK (Cell Signaling, #9121) antibody and the Alpha Screen IgG (ProteinA) detection Kit (PerkinElmer #6760617R), by the addition of […] to the well of a mixture of the antibody (1:2000 dilution) and detection beads (1:2000 dilution of both beads) in Stop/bead buffer (25 mM EDTA, 50 mM Tris, pH 7.5, 0.01% Tween20). The additions were carried out under dark conditions to protect the detection beads from light. A lid was placed on top of the plate and incubated for 1 hour at room temperature, after which the luminescence was read on a PerkinElmer Envision instrument. The concentration of each compound for 50% inhibition (IC50) was calculated by non-linear regression using XL Fit data analysis software.

C-RAF = molecular target: T2, C-RAF (Homo sapiens, UniProt P04049, Y340E/Y341E); experiment: In vitro Raf activity determination (Alpha Screen, biotinylated kinase-dead MEK1 substrate), C-Raf; type: biochemical; details: c-Raf approximately 4 nM; ATP 1 μM; pre-incubation 60 minutes; reaction 1 hour at room temperature
T2 construct: His tag (implied by nickel chromatography) (cleaved yes); StrepII tag (cleaved yes); made in house; host or cells: Sf9 insect cells (baculovirus), CRAF and h14-3-3 zeta co-expressed; MEK1 substrate from E. coli
T2 sequence (P04049 whole entry Y340E/Y341E): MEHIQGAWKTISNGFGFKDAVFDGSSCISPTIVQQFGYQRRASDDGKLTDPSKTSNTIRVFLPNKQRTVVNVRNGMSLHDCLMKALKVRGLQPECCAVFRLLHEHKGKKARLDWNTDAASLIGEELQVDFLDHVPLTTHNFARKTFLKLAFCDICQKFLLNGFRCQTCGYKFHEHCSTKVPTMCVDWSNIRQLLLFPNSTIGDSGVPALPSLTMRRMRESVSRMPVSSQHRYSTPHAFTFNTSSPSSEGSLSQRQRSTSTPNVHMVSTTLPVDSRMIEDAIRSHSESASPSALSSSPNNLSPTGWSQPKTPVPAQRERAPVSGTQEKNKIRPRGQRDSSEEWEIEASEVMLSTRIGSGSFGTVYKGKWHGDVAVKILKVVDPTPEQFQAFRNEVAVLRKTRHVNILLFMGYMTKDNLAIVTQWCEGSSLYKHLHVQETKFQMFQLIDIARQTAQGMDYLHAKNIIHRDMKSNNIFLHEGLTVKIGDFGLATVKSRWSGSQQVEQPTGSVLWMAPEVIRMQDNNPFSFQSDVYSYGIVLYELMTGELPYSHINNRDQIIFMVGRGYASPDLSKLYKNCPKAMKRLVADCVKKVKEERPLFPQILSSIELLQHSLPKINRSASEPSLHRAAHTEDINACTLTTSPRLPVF
T2 sequence (P63104 whole entry partner): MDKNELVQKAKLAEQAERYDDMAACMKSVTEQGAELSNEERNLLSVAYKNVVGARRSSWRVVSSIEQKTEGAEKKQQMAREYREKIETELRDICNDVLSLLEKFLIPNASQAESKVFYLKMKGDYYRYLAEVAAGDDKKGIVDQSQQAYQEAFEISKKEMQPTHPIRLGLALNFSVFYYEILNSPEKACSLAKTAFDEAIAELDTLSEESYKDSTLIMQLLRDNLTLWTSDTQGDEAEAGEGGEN
Description: CRAF cDNA was subcloned as full length protein, with Y340E and Y341E activating mutations, into a baculovirus expression vector for Sf9 insect cell expression. h14-3-3 zeta cDNA was subcloned into a baculovirus expression vector for SF9 insect cell expression. Sf9 cells co-expressing both proteins were lysed and subjected to immobilized nickel chromatography and eluted with Imidazole. A second column (StrepII binding column) was used and eluted with desthiobiotin. Protein Tags were removed using Prescission enzyme and the protein was further purified using a flowthrough step to remove tags.
C-Raf TR refers to a truncated C-Raf protein, a Δ1-324 deletion mutant. C-Raf FL refers to the full-length C-Raf protein.
as §1, §2, §3, §4

T1 sequence (P15056 whole entry V600E): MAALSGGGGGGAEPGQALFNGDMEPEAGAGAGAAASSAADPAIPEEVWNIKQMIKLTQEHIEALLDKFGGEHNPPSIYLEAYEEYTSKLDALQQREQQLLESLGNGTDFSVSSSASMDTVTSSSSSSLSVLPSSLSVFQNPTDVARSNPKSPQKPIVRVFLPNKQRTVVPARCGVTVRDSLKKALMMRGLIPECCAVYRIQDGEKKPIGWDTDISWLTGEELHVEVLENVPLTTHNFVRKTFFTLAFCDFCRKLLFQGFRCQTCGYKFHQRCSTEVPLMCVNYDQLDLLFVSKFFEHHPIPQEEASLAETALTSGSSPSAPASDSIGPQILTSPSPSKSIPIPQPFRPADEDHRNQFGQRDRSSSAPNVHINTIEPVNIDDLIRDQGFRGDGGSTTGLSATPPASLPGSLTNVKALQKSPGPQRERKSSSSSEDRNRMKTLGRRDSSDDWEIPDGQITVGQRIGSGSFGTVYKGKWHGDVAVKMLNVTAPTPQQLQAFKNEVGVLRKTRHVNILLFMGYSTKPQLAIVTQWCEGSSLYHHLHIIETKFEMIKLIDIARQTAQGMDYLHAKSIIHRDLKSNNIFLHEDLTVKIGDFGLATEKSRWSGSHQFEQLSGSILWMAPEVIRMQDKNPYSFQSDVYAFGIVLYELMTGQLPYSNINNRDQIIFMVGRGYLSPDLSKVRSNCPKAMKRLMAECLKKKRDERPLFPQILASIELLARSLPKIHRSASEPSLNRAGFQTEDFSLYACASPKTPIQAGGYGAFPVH

Cc1ccc(NC(=O)c2ccnc(C(C)(C)C#N)c2)cc1-c1cnc(NC2CCOCC2)c(C#N)c1 [Example 60, N-(3-(5-cyano-6-((tetrahydro-2H-pyran-4-yl)amino)pyridin-3-yl)-4-methylphenyl)-2-(2-cyanopropan-2-yl)isonicotinamide]
IC50 (b-Raf (V600E)): 1.08 nM | IC50 (C-RAF): 0.367 nM

Cc1ccc(NC(=O)c2ccnc(C(F)(F)F)c2)cc1-c1cnc(NC2CCOCC2)c(C#N)c1 [Example 61, N-(3-(5-cyano-6-((tetrahydro-2H-pyran-4-yl)amino)pyridin-3-yl)-4-methylphenyl)-2-(trifluoromethyl) isonicotinamide]
IC50 (b-Raf (V600E)): 0.509 nM | IC50 (C-RAF): 0.194 nM

Cc1ccc(NC(=O)c2ccnc(C(F)(F)F)c2)cc1-c1cnc(N2CCOCC2)c(C#N)c1 [Example 62, N-(3-(5-cyano-6-morpholinopyridin-3-yl)-4-methylphenyl)-2-(trifluoromethyl) isonicotinamide]
IC50 (b-Raf (V600E)): 0.477 nM | IC50 (C-RAF): 0.158 nM

Cc1ccc(NC(=O)c2ccnc(C(F)(F)F)c2)cc1-c1cnc(N2CC(O)C2)c(C#N)c1 [Example 63, N-(3-(5-cyano-6-(3-hydroxyazetidin-1-yl)pyridin-3-yl)-4-methylphenyl)-2-(trifluoromethyl) isonicotinamide]
IC50 (b-Raf (V600E)): 0.488 nM | IC50 (C-RAF): 0.121 nM

Cc1ncc(NC(=O)c2ccnc(C(C)(C)C#N)c2)cc1-c1cnc(N2CCOCC2)c(C#N)c1 [Example 64, N-(5′-cyano-2-methyl-6′-morpholino-[3,3′-bipyridin]-5-yl)-2-(2-cyanopropan-2-yl)isonicotinamide]
IC50 (b-Raf (V600E)): 3.7 nM | IC50 (C-RAF): 0.832 nM

Cc1ncc(NC(=O)c2ccnc(C(C)(C)C#N)c2)cc1-c1cnc(N2CC(O)C2)c(C#N)c1 [Example 65, N-(5′-cyano-6′-(3-hydroxyazetidin-1-yl)-2-methyl-[3,3′-bipyridin]-5-yl)-2-(2-cyanopropan-2-yl)isonicotinamide]
IC50 (b-Raf (V600E)): 14.5 nM | IC50 (C-RAF): 2.7 nM

Cc1ncc(NC(=O)c2cccc(C(F)(F)F)c2)cc1-c1cnc(N2CCOCC2)c(C#N)c1 [Example 66, N-(5′-cyano-2-methyl-6′-morpholino-[3,3′-bipyridin]-5-yl)-3-(trifluoromethyl) benzamide]
IC50 (b-Raf (V600E)): 0.852 nM | IC50 (C-RAF): 0.203 nM

Cc1ncc(NC(=O)c2cccc(C(F)(F)F)c2)cc1-c1cnc(N2CC(O)C2)c(C#N)c1 [Example 67, N-(5′-cyano-6′-(3-hydroxyazetidin-1-yl)-2-methyl-[3,3′-bipyridin]-5-yl)-3-(trifluoromethyl) benzamide]
IC50 (b-Raf (V600E)): 1.24 nM | IC50 (C-RAF): 0.225 nM

Cc1ncc(NC(=O)c2ccnc(C(F)(F)F)c2)cc1-c1cnc(N2CCOCC2)c(C#N)c1 [Example 68, N-(5′-cyano-2-methyl-6′-morpholino-[3,3′-bipyridin]-5-yl)-2-(trifluoromethyl) isonicotinamide]
IC50 (b-Raf (V600E)): 0.902 nM | IC50 (C-RAF): 0.223 nM

Cc1ncc(NC(=O)c2ccnc(C(F)(F)F)c2)cc1-c1cnc(N2CC(O)C2)c(C#N)c1 [Example 69, N-(5′-cyano-6′-(3-hydroxyazetidin-1-yl)-2-methyl-[3,3′-bipyridin]-5-yl)-2-(trifluoromethyl) isonicotinamide]
IC50 (b-Raf (V600E)): 2.56 nM | IC50 (C-RAF): 0.46 nM

Cc1ncc(NC(=O)c2ccnc(C(F)(F)F)c2)cc1-c1cnc(N2CCNCC2)c(C#N)c1 [Example 70, N-(5′-cyano-2-methyl-6′-(piperazin-1-yl)-[3,3′-bipyridin]-5-yl)-2-(trifluoromethyl) isonicotinamide]
IC50 (b-Raf (V600E)): 0.994 nM | IC50 (C-RAF): 0.418 nM

Cc1ncc(NC(=O)c2ccnc(C(C)(C)C#N)c2)cc1-c1cnc(N2CCNCC2)c(C#N)c1 [Example 71, N-(5′-cyano-2-methyl-6′-(piperazin-1-yl)-[3,3′-bipyridin]-5-yl)-2-(2-cyanopropan-2-yl)isonicotinamide]
IC50 (b-Raf (V600E)): 4.03 nM | IC50 (C-RAF): 1.97 nM

Cc1ncc(NC(=O)c2ccnc(C(C)(C)C#N)c2)cc1-c1cnc(NC2CCOCC2)c(C#N)c1 [Example 72, N-(5′-cyano-2-methyl-6′-((tetrahydro-2H-pyran-4-yl)amino)-[3,3′-bipyridin]-5-yl)-2-(2-cyanopropan-2-yl)isonicotinamide]
IC50 (b-Raf (V600E)): 6.47 nM | IC50 (C-RAF): 1.53 nM

Cc1ncc(NC(=O)c2ccnc(C(C)(C)C#N)c2)cc1-c1cnc(N2CCCC2)c(C#N)c1 [Example 73, N-(5′-cyano-2-methyl-6′-(pyrrolidin-1-yl)-[3,3′-bipyridin]-5-yl)-2-(2-cyanopropan-2-yl)isonicotinamide]
IC50 (b-Raf (V600E)): 8.66 nM | IC50 (C-RAF): 2.09 nM

Cc1ncc(NC(=O)c2ccnc(C(C)(C)C#N)c2)cc1-c1cnc(N2CCO[C@@H](C)C2)c(C#N)c1 [Example 74, (S)-N-(5′-cyano-2-methyl-6′-(2-methylmorpholino)-[3,3′-bipyridin]-5-yl)-2-(2-cyanopropan-2-yl)isonicotinamide]
IC50 (b-Raf (V600E)): 5.54 nM | IC50 (C-RAF): 1.64 nM

Cc1ncc(NC(=O)c2ccnc(C(C)(C)C#N)c2)cc1-c1cnc(N2CCO[C@H](C)C2)c(C#N)c1 [Example 75, (R)-N-(5′-cyano-2-methyl-6′-(2-methylmorpholino)-[3,3′-bipyridin]-5-yl)-2-(2-cyanopropan-2-yl)isonicotinamide]
IC50 (b-Raf (V600E)): 3.79 nM | IC50 (C-RAF): 1.2 nM

Cc1ncc(NC(=O)c2ccnc(C(C)(C)C#N)c2)cc1-c1cnc(N2CCC2)c(C#N)c1 [Example 76, N-(6′-(azetidin-1-yl)-5′-cyano-2-methyl-[3,3′-bipyridin]-5-yl)-2-(2-cyanopropan-2-yl)isonicotinamide]
IC50 (b-Raf (V600E)): 9.01 nM | IC50 (C-RAF): 1.53 nM

Cc1ncc(NC(=O)c2ccnc(C(C)(C)C#N)c2)cc1-c1cnc(NC2CCOC2)c(C#N)c1 (stereo not shown) [Example 77, N-(5′-cyano-2-methyl-6′-((tetrahydrofuran-3-yl)amino)-[3,3′-bipyridin]-5-yl)-2-(2-cyanopropan-2-yl)isonicotinamide]
IC50 (b-Raf (V600E)): 9.28 nM | IC50 (C-RAF): 2.53 nM

Cc1ncc(NC(=O)c2ccnc(C(C)(C)C#N)c2)cc1-c1cnc(N2CCOC[C@H]2C)c(C#N)c1 [Example 79, (R)-N-(5′-cyano-2-methyl-6′-(3-methylmorpholino)-[3,3′-bipyridin]-5-yl)-2-(2-cyanopropan-2-yl)isonicotinamide]
IC50 (b-Raf (V600E)): 4.34 nM | IC50 (C-RAF): 1.51 nM

Cc1ncc(NC(=O)c2ccnc(C(C)(C)C#N)c2)cc1-c1cnc(NC2COC2)c(C#N)c1 [Example 80, N-(5′-cyano-2-methyl-6′-(oxetan-3-ylamino)-[3,3′-bipyridin]-5-yl)-2-(2-cyanopropan-2-yl)isonicotinamide]
IC50 (b-Raf (V600E)): 12.6 nM | IC50 (C-RAF): 1.93 nM

Cc1ncc(NC(=O)c2ccnc(C(C)(C)C#N)c2)cc1-c1cnc(-n2ccnc2C)c(C#N)c1 [Example 81, N-(5′-cyano-2-methyl-6′-(2-methyl-1H-imidazol-1-yl)-[3,3′-bipyridin]-5-yl)-2-(2-cyanopropan-2-yl)isonicotinamide]
IC50 (b-Raf (V600E)): 90.6 nM | IC50 (C-RAF): 15.1 nM

Cc1ncc(NC(=O)c2ccnc(C(C)(C)C#N)c2)cc1-c1cnc(NC2CC2)c(C#N)c1 [Example 82, N-(5′-cyano-6′-(cyclopropylamino)-2-methyl-[3,3′-bypyridin]-5-yl)-2-(2-cyanopropan-2-yl)isonicotinamide]
IC50 (b-Raf (V600E)): 10.8 nM | IC50 (C-RAF): 2.04 nM

Cc1ccn(-c2ncc(-c3cc(NC(=O)c4ccnc(C(C)(C)C#N)c4)cnc3C)cc2C#N)n1 [Example 83, N-(5′-cyano-2-methyl-6′-(3-methyl-1H-pyrazol-1-yl)-[3,3′-bipyridin]-5-yl)-2-(2-cyanopropan-2-yl)isonicotinamide]
IC50 (b-Raf (V600E)): 23.7 nM | IC50 (C-RAF): 4.89 nM
